Measured values as given in US20130165464A1, “HETEROARYLS AND USES THEREOF” (MILLENNIUM PHARMACEUTICALS, INC., priority 2011, published 2013).

Molecular target: T1, VPS34 (Homo sapiens, UniProt Q8NEB9)
T1 construct: GST (N); host or cells: SF9 insect cells (baculovirus)
Assay: Human VPS34 enzyme assay (Adapta TR-FRET)
Type: biochemical
Details: for inhibition at 1.11 µM: 1 h, at a 1.11 μM concentration, read-out: VPS34 Percent Inhibition
Protocol: VPS34 (accession number GB:BCO33004) was cloned into pDEST20-Thombin as N-terminal GST tagged fusion proteins using the Gateway system (Invitrogen, catalog#11804-013). The sequences were verified before recombinant protein expression using the Baculovirus Expression System with Gateway® Technology.
For expression VPS34 was infected at 1MOI in SF9 cells and harvested 72 hours post infection.
For purification, VPS34 is purified by Glutathione Sepharose 4 Fast Flow (GE Healthcare #17-5132-03) followed by HiTrap Q (GE Healthcare #17-1153-01).
Human VPS34 Enzyme Assay Method
100 nL compounds in DMSO are added to wells of a 384 well microtitre plate (Greiner 780076). At room temperature: 5 ul VPS34 reaction buffer (Invitrogen Assay Buffer Q (diluted 1 in 5 with nanopure water) plus 2 mM DTT and 2 mM MnCl2) containing ATP (20 uM, Promega) and 200 uM PI-PS substrate (Invitrogen PV5122) is added followed immediately by 5 ul VPS34 reaction buffer (as above) containing VPS34 (5 nM, Millennium Protein Sciences Group) and the mixture is incubated with shaking at room temperature for 1 hour. Then 5 ul VPS34 stop-detect mix (as per Invitrogen Adapta Assay kit (PV5009) instructions (contains kinase quench buffer, TR-FRET buffer, Adapta Eu anti-ADP antibody and Alexa Fluor 647 ADP tracer)) is added to quench the reaction. The plates are then incubated for 30 minutes at room temperature with shaking and then read on a BMG PheraStar Plus reader.
For the assay methods described above, test compound percent inhibition, at various concentrations, is calculated relative to control (DMSO and EDTA) treated samples. Compound concentration versus percent inhibition curves are fitted to generate IC50 values. One skilled in the art will appreciate that the values generated either as percentage inhibition at a single concentration or IC50 values are subject to experimental variation.

T1 sequence (Q8NEB9 whole entry): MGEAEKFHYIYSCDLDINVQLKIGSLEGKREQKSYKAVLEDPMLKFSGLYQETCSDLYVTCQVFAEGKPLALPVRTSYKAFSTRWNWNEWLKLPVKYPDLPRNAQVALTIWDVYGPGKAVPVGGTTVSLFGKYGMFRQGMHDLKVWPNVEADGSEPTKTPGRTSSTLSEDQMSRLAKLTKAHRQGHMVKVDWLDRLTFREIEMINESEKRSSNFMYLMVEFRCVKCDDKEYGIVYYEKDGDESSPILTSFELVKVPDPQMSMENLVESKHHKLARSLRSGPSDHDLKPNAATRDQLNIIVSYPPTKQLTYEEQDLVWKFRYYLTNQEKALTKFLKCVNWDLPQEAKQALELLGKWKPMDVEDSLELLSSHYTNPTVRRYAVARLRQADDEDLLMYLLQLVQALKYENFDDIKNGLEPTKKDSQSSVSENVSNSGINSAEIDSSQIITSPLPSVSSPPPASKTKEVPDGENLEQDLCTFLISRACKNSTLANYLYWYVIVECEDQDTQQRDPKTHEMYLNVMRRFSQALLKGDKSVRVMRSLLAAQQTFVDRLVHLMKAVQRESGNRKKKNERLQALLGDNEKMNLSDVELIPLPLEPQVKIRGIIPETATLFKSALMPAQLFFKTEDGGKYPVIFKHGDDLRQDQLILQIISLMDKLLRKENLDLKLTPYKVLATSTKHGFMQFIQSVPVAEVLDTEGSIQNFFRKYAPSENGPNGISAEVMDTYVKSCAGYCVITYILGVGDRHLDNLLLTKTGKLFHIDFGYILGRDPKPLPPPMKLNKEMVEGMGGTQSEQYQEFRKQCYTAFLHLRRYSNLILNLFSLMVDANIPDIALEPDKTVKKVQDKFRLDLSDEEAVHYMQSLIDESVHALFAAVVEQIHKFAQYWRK

Row | Structure (SMILES) | IC50 | inhibition at 1.11 µM
1 | CC(=O)Nc1cc(-n2cc(-c3nc[nH]n3)c(-c3cc(CN(C)C)ccc3Cl)c2)c(C)cn1 [I-76, N-{4-[3-{2-chloro-5-[(dimethylamino)methyl]phenyl}-4-(1H-1,2,4-triazol-3-yl)-1H-pyrrol-1-yl]-5-methylpyridin-2-yl}acetamide] | 1000 to 5000 nM | 23%
2 | Cc1cnc(N)cc1-n1cc(-c2nnc[nH]2)c(-c2ccccc2Cl)n1 [I-108, 4-[3-(2-chlorophenyl)-4-(4H-1,2,4-triazol-3-yl)-1H-pyrazol-1-yl]-5-methylpyridin-2-amine] | 1000 to 5000 nM | 10%
3 | CC(=O)Nc1cc(-n2cc(CO)c(-c3ccccc3Cl)c2)c(C)cn1 [I-85, N-{4-[3-(2-chlorophenyl)-4-(hydroxymethyl)-1H-pyrrol-1-yl]-5-methylpyridin-2-yl}acetamide] | 150 to 1000 nM | 93%
4 | CCc1ccccc1-c1nn(-c2cc(NC(C)=O)ncc2C)cc1-c1nc[nH]n1 [I-57, N-{4-[3-(2-ethylphenyl)-4-(1H-1,2,4-triazol-3-yl)-1H-pyrazol-1-yl]-5-methylpyridin-2-yl}acetamide] | 150 to 1000 nM | 94%
5 | CC(=O)Nc1cc(-n2cc(C(N)=O)c(-c3ccccc3Cl)c2)c(C)cn1 [I-41, 1-(2-acetamido-5-methylpyridin-4-yl)-4-(2-chlorophenyl)-1H-pyrrole-3-carboxamide] | – | 78%

Continued, values first:

Row | IC50 | inhibition at 1.11 µM | Structure (SMILES)
6 | < 50 nM | > 99% | COC(=O)Nc1cc(-n2cc(-c3nc[nH]n3)c(-c3ccccc3Cl)c2)c(C)cn1 [I-55, methyl {4-[3-(2-chlorophenyl)-4-(1H-1,2,4-triazol-3-yl)-1H-pyrrol-1-yl]-5-methylpyridin-2-yl}carbamate]
7 | < 50 nM | 97% | COC(=O)Nc1cc(-n2cc(-c3ncc[nH]3)c(-c3ccccc3Cl)c2)c(C)cn1 [I-109, methyl {4-[3-(2-chlorophenyl)-4-(1H-imidazol-2-yl)-1H-pyrrol-1-yl]-5-methylpyridin-2-yl}carbamate]
8 | < 50 nM | > 99% | Cc1cnc(NC(=O)C2CC2)cc1-n1cc(-c2nc[nH]n2)c(-c2ccccc2Cl)n1 [I-46, N-{4-[3-(2-chlorophenyl)-4-(1H-1,2,4-triazol-3-yl)-1H-pyrazol-1-yl]-5-methylpyridin-2-yl}cyclopropanecarboxamide]
9 | < 50 nM | > 99% | Cc1cnc(NC(=O)OCCF)cc1-n1cc(-c2nc[nH]n2)c(-c2ccccc2Cl)c1 [I-81, 2-fluoroethyl {4-[3-(2-chlorophenyl)-4-(1H-1,2,4-triazol-3-yl)-1H-pyrrol-1-yl]-5-methylpyridin-2-yl}carbamate]
10 | 150 to 1000 nM | 59% | CC(=O)Nc1cc(-n2cc(-c3nnc[nH]3)c(I)n2)c(C)cn1 [I-62, N-{4-[3-iodo-4-(1H-1,2,4-triazol-3-yl)-1H-pyrazol-1-yl]-5-methylpyridin-2-yl}acetamide]
11 | < 50 nM | > 99% | COC(=O)Nc1cc(-n2cc(-c3nc[nH]n3)c(-c3ccccc3Cl)n2)ccn1 [I-17, methyl {4-[3-(2-chlorophenyl)-4-(1H-1,2,4-triazol-3-yl)-1H-pyrazol-1-yl]pyridin-2-yl}carbamate]
12 | 150 to 1000 nM | 75% | CC(=O)Nc1cc(-n2cc(-c3nc[nH]n3)c(-c3ccccc3SC(F)(F)F)n2)c(C)cn1 [I-59, N-{5-methyl-4-[4-(1H-1,2,4-triazol-3-yl)-3-{2-[(trifluoromethyl)sulfanyl]phenyl}-1H-pyrazol-1-yl]pyridin-2-yl}acetamide]
13 | 150 to 1000 nM | 97% | CC(=O)Nc1cc(-n2cc(C(=O)O)c(-c3ccccc3Cl)n2)c(C)cn1 [I-6, 1-(2-acetamido-5-methylpyridin-4-yl)-3-(2-chlorophenyl)-1H-pyrazole-4-carboxylic acid]
